These are literature values, as cited in patent publication US20190274986A1, “STERILE INJECTABLE COMPOSITION COMPRISING MELPHALAN” (CADILA HEALTHCARE LIMITED, priority 2018, published 2019).

Assay in data set [1]: not given
The source holds these as a separate data set.

Like-named read-outs stand apart in the source and are kept apart here.

In the case of `Cl.N[C@@H](Cc1ccc(N(CCCl)CCCl)cc1)C(=O)O` [Melphalan, 4-[bis(2-chloroethyl)amino]-L-phenylalanine hydrochloride], the Solubility result runs as follows: (in 1 N HCl) “freely soluble”; (in methanol) “freely soluble”; (in water) “practically insoluble”.
Consider sulfobutylether beta-cyclodextrin, for which the “Dose with evidence of renal cellular toxicity” value in data set [1] (animal studies, repeated administration over 1-6 months) is listed as at least 160 mg/kg/day. In addition, the “Renal function on repeated administration” value in data set [1] (animal studies, repeated administration, even at much higher doses) is “renal function was not impaired”. Besides, the “Renal effect in single-dose studies” value in data set [1] (animal trials, single-dose up to 2000 mg/kg i.v.) is reported as “renal tolerance”.
